US20100267561A1, “HERBICIDAL PYRIDAZINONE DERIVATIVES” (priority 2007, published 2010)

How the values were obtained:
Assay in all cases: Test E pre-/postemergence plant response
Format in all cases: in vivo
[1] = tested on: common mallow (Malva sylvestris); conditions: Postemergence, scale 0 to 100
In short: (§1)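 Ratings of 0 (no effect) through 100 (complete control) came from visual evaluation against untreated plants after a 14- to 21-day greenhouse period. Compound in a non-phytotoxic solvent/surfactant mixture was applied preemergence to seeds and postemergence to plants at the 1- to 4-leaf stage.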

[2] = tested on: broadleaf signalgrass (Brachiaria platyphylla); conditions: scale 0 to 100
In short: as §1

[3] = tested on: quackgrass (Elytrigia repens); conditions: scale 0 to 100
In short: as §1

[4] = tested on: common groundsel (Senecio vulgaris); conditions: Postemergence, scale 0 to 100
In short: as §1

[5] = tested on: purple nutsedge (Cyperus rotundus); conditions: scale 0 to 100
In short: as §1

[6] = tested on: common purslane (Portulaca oleracea); conditions: scale 0 to 100
In short: as §1

[7] = tested on: large crabgrass (Digitaria sanguinalis); conditions: scale 0 to 100
In short: as §1

[8] = tested on: southern (S.) sandbur (Cenchrus echinatus); conditions: scale 0 to 100
In short: as §1

[9] = tested on: surinam grass (Brachiaria decumbens); conditions: scale 0 to 100
In short: as §1

[10] = tested on: dallisgrass (Paspalum dilatatum); conditions: scale 0 to 100
In short: as §1

[11] = tested on: johnsongrass (Sorghum halepense); conditions: scale 0 to 100
In short: as §1

[12] = tested on: green foxtail (Setaria viridis); conditions: scale 0 to 100
In short: as §1

CCc1cc(-c2ccc(Cl)cc2)nn1-c1c(OS(C)(=O)=O)cnn(C)c1=O [Compound 39]
Plant response rating, Mallow ([1]; 8 g ai/ha): 0
Plant response rating, Mallow ([1]; 16 g ai/ha): 0
Plant response rating, Mallow ([1]; 31 g ai/ha): 0
Plant response rating, Mallow ([1]; 62 g ai/ha): 0
Plant response rating, Signalgrass ([2]; 16 g ai/ha, Preemergence): 85
Plant response rating, Signalgrass ([2]; 31 g ai/ha, Preemergence): 95
Plant response rating, Signalgrass ([2]; 62 g ai/ha, Preemergence): 100
Plant response rating, Signalgrass ([2]; Postemergence, 8 g ai/ha): 35
Plant response rating, Signalgrass ([2]; Postemergence, 16 g ai/ha): 95
Plant response rating, Signalgrass ([2]; Postemergence, 31 g ai/ha): 95
Plant response rating, Signalgrass ([2]; Postemergence, 62 g ai/ha): 100
Plant response rating, Quackgrass ([3]; 16 g ai/ha, Preemergence): 60
Plant response rating, Quackgrass ([3]; 31 g ai/ha, Preemergence): 95
Plant response rating, Quackgrass ([3]; 62 g ai/ha, Preemergence): 100
Plant response rating, Quackgrass ([3]; Postemergence, 8 g ai/ha): 0
Plant response rating, Quackgrass ([3]; Postemergence, 16 g ai/ha): 30
Plant response rating, Quackgrass ([3]; Postemergence, 31 g ai/ha): 60
Plant response rating, Quackgrass ([3]; Postemergence, 62 g ai/ha): 60
Plant response rating, Groundsel ([4]; 31 g ai/ha): 0
Plant response rating, Groundsel ([4]; 62 g ai/ha): 0
Plant response rating, Nutsedge, Purple ([5]; 16 g ai/ha, Preemergence): 0
Plant response rating, Nutsedge, Purple ([5]; 31 g ai/ha, Preemergence): 0
Plant response rating, Nutsedge, Purple ([5]; Postemergence, 8 g ai/ha): 0
Plant response rating, Nutsedge, Purple ([5]; Postemergence, 16 g ai/ha): 0
Plant response rating, Nutsedge, Purple ([5]; Postemergence, 31 g ai/ha): 0
Plant response rating, Nutsedge, Purple ([5]; Postemergence, 62 g ai/ha): 0
Plant response rating, Purslane ([6]; 16 g ai/ha, Preemergence): 0
Plant response rating, Purslane ([6]; 31 g ai/ha, Preemergence): 0
Plant response rating, Purslane ([6]; 62 g ai/ha, Preemergence): 0
Plant response rating, Purslane ([6]; Postemergence, 8 g ai/ha): 0
Plant response rating, Purslane ([6]; Postemergence, 16 g ai/ha): 0
Plant response rating, Purslane ([6]; Postemergence, 31 g ai/ha): 0
Plant response rating, Purslane ([6]; Postemergence, 62 g ai/ha): 0
Plant response rating, Crabgrass, Large ([7]; 8 g ai/ha, Preemergence): 30
Plant response rating, Crabgrass, Large ([7]; 16 g ai/ha, Preemergence): 60
Plant response rating, Crabgrass, Large ([7]; 31 g ai/ha, Preemergence): 98
Plant response rating, Crabgrass, Large ([7]; 62 g ai/ha, Preemergence): 100
Plant response rating, Crabgrass, Large ([7]; Postemergence, 8 g ai/ha): 65
Plant response rating, Crabgrass, Large ([7]; Postemergence, 16 g ai/ha): 90
Plant response rating, Crabgrass, Large ([7]; Postemergence, 31 g ai/ha): 95
Plant response rating, Crabgrass, Large ([7]; Postemergence, 62 g ai/ha): 98
Plant response rating, Sandbur, S. ([8]; 16 g ai/ha, Preemergence): 90
Plant response rating, Sandbur, S. ([8]; 31 g ai/ha, Preemergence): 100
Plant response rating, Sandbur, S. ([8]; 62 g ai/ha, Preemergence): 100
Plant response rating, Sandbur, S. ([8]; Postemergence, 8 g ai/ha): 75
Plant response rating, Sandbur, S. ([8]; Postemergence, 16 g ai/ha): 85
Plant response rating, Sandbur, S. ([8]; Postemergence, 31 g ai/ha): 95
Plant response rating, Sandbur, S. ([8]; Postemergence, 62 g ai/ha): 100
Plant response rating, Surinam Grass ([9]; 16 g ai/ha, Preemergence): 100
Plant response rating, Surinam Grass ([9]; 31 g ai/ha, Preemergence): 100
Plant response rating, Surinam Grass ([9]; 62 g ai/ha, Preemergence): 100
Plant response rating, Surinam Grass ([9]; Postemergence, 8 g ai/ha): 95
Plant response rating, Surinam Grass ([9]; Postemergence, 16 g ai/ha): 100
Plant response rating, Surinam Grass ([9]; Postemergence, 31 g ai/ha): 100
Plant response rating, Surinam Grass ([9]; Postemergence, 62 g ai/ha): 100
Plant response rating, Dallisgrass ([10]; 8 g ai/ha, Preemergence): 35
Plant response rating, Dallisgrass ([10]; 16 g ai/ha, Preemergence): 98
Plant response rating, Dallisgrass ([10]; 31 g ai/ha, Preemergence): 98
Plant response rating, Dallisgrass ([10]; 62 g ai/ha, Preemergence): 100
Plant response rating, Dallisgrass ([10]; Postemergence, 8 g ai/ha): 60
Plant response rating, Dallisgrass ([10]; Postemergence, 16 g ai/ha): 70
Plant response rating, Dallisgrass ([10]; Postemergence, 31 g ai/ha): 75
Plant response rating, Dallisgrass ([10]; Postemergence, 62 g ai/ha): 75
Plant response rating, Johnsongrass ([11]; 16 g ai/ha, Preemergence): 75
Plant response rating, Johnsongrass ([11]; 31 g ai/ha, Preemergence): 80
Plant response rating, Johnsongrass ([11]; 62 g ai/ha, Preemergence): 98
Plant response rating, Johnsongrass ([11]; Postemergence, 8 g ai/ha): 35
Plant response rating, Johnsongrass ([11]; Postemergence, 16 g ai/ha): 75
Plant response rating, Johnsongrass ([11]; Postemergence, 31 g ai/ha): 75
Plant response rating, Johnsongrass ([11]; Postemergence, 62 g ai/ha): 95
Plant response rating, Foxtail, Green ([12]; 8 g ai/ha, Preemergence): 75
Plant response rating, Foxtail, Green ([12]; 16 g ai/ha, Preemergence): 90
Plant response rating, Foxtail, Green ([12]; 31 g ai/ha, Preemergence): 98
Plant response rating, Foxtail, Green ([12]; 62 g ai/ha, Preemergence): 100
Plant response rating, Foxtail, Green ([12]; Postemergence, 8 g ai/ha): 60
Plant response rating, Foxtail, Green ([12]; Postemergence, 16 g ai/ha): 70
Plant response rating, Foxtail, Green ([12]; Postemergence, 31 g ai/ha): 75
Plant response rating, Foxtail, Green ([12]; Postemergence, 62 g ai/ha): 95
